For data set [1], the system named is NCI-H1568 cells. Briefly: Cell viability assay (CellTiter Glo) in NCI-H1568.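 For % Viability: percent of DMSO-treated control cells.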 The format is cell-based, human. The following applies: for IC50: NCI-H1568, (18h), CellTiter Glo, individual replicates, read-out: NCI-H1568 (18h) CTG. The method, then:
500–2000 cells were seeded in white, clear bottom 96-well plates (Corning or Perkin Elmer) in 180–200 µl medium per well. The next day, compounds were added using a digital dispenser and a T0 sample was measured for reference. […], and viability (luminescence) was measured using CellTiter Glo or CellTiter Glo 2.0 (Promega) according to manufacturer’s instructions after equilibrating cells and reagents at room temperature and 10–20 min incubation time while shaking.

Data set [2] concerns the target T1, VCB: PROTAC: SMARCA2^BD ternary complex (Homo sapiens, UniProt P51531).
T1 construct: P51531-2, residues 1373-1493 with additional N-terminal SM residues; GST (TEV site) (N); His6 (TEV site) (N, cleaved yes); made in house; host or cells: SMARCA2^BD: Escherichia coli BL21(DE3)
Briefly: TR-FRET ternary complex affinity and cooperativity, SMARCA2. The data set is classed as binding.

For data set [3], the target named is T2, PBRM1 BD (Homo sapiens, UniProt Q86U86).
T2 construct: GST (TEV site) (N); made in house; host or cells: Escherichia coli BL21(DE3)
In words: TR-FRET binary and ternary (PROTAC + VCB) affinity, PBRM1 bromodomain. To be noted: individual replicates. The format is binding.

For data set [4], the target named is SMARCA2 (Homo sapiens, UniProt P51531). In words: Imaging-based SMARCA2 protein assay in RKO cells. The data set is classed as cell-based. Set-up: endogenous in cells; host or cells: RKO, NCI-H1568, A549, HCT116, LU99, HCC-364, HCT-15, HCC4006, SK-N-AS. To be noted: individual replicates. Here is the method: 1250 cells per well in 60 µl medium were plated in flat bottom, poly-lysin coated 384-well plates (CellCarrier Ultra, Perkin Elmer). The next day, test compounds (10 µl of serial dilutions) and DMSO controls were diluted in DMEM medium such that the final DMSO content was <1% or were added using an ultrasound dispensing system. 4 wells were reserved for a background measurement. […] After aspirating the fixing solution, the cells were washed once with 25 µl PBS. 25 µl of blocking buffer (10% goat serum in PBS) was added and cells were incubated for 30 min, then washed once with PBS. […] Cells were again washed once with PBS. […] The cell layer was then washed once with 25 µl PBS, the wells were filled with 25 µl PBS and the plates were sealed with an adhesive sheet. They were then imaged on the Opera Phoenix (mean intensity in the nucleus). […] EC50 values were computed using a 4-parametric logistic model.
SMARCA2, sequence (P51531 whole entry): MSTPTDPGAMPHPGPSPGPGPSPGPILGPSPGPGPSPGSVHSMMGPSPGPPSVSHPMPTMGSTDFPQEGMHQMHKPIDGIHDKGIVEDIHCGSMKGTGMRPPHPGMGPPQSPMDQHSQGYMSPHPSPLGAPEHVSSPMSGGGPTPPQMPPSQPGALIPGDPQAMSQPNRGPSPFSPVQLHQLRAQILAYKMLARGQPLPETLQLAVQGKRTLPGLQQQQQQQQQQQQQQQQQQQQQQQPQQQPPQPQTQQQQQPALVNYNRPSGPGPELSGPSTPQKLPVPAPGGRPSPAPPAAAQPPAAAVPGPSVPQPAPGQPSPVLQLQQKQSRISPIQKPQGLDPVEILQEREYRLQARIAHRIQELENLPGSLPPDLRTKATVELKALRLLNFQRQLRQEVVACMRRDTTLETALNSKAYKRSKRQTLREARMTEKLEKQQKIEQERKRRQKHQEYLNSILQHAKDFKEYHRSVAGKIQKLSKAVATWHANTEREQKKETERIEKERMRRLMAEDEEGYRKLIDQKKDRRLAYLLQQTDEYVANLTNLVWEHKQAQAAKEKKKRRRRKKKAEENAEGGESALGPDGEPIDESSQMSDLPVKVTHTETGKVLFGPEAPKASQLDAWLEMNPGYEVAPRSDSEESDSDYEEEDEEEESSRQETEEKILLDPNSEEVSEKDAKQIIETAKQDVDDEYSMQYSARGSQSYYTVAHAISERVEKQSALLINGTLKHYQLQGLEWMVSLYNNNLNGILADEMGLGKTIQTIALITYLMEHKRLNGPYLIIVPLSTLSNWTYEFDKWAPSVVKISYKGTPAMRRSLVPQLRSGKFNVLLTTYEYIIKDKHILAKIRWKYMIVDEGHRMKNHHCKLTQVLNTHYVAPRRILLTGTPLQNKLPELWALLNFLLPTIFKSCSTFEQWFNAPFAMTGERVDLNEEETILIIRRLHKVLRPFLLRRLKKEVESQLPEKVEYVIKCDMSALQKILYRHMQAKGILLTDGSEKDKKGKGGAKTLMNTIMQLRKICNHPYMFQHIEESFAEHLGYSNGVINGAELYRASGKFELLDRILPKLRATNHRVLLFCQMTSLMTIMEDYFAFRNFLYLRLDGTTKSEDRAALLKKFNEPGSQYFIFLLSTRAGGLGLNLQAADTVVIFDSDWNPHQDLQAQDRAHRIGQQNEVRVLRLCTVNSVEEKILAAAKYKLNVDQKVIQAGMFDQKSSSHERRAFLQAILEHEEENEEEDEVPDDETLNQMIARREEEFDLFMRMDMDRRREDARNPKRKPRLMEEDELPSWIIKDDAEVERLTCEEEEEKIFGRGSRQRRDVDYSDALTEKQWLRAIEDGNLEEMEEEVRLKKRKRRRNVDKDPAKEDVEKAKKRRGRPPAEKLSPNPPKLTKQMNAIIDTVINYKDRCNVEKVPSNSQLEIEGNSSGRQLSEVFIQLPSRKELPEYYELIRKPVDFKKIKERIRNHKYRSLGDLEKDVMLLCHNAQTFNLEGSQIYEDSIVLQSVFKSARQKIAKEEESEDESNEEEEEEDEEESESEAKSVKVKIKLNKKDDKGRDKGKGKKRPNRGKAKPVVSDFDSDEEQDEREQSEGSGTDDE

The target in data set [5] is T3, (Homo sapiens, UniProt P51532).
T3 construct: P51532, residues 1448–1569 with additional N-terminal SM residues; GST (TEV site) (N); His6 (TEV site) (N, cleaved yes); made in house; host or cells: SMARCA4^BD: Escherichia coli BL21(DE3)
T3 sequence (P51532 1448-1569): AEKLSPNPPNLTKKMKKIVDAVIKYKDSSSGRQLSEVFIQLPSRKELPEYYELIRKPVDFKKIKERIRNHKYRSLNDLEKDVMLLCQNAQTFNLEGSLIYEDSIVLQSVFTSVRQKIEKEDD
Briefly: TR-FRET ternary complex affinity and cooperativity, SMARCA4. The format is binding.

Setting [6] is: NCI-H1568 ([…]), mean ± SD, read-out: EC50 cell proliferation (CellTiter Glo).
The mark [7] stands for this setting: binary, PROTAC alone, individual replicates, read-out: SMARCA2 BD EC50.
The mark [8] stands for this setting: PROTAC + VCB, read-out: Ternary PBRM1 BD EC50 (PROTAC + VCB).
Setting [9] is: binary, PROTAC alone, read-out: PBRM1 EC50.
Setting [10] is: 4h, read-out: RKO (4h) SMARCA2 DC50.
The mark [11] stands for this setting: 18h, read-out: RKO (18h) SMARCA2 DC50.
[12] abbreviates: binary, PROTAC alone, individual replicates, read-out: SMARCA4 BD EC50.
The mark [13] stands for this setting: TR-FRET competition for SMARCA2BD, without VCB, mean ± SD, read-out: TR-FRET SMARCA2BD EC50.
Where [14] appears, read: PBRM1 EC50, binary, PROTAC alone.
[15] abbreviates: Ternary PBRM1 BD EC50 (PROTAC + VCB), PROTAC + VCB.
[16] abbreviates: TR-FRET competition for SMARCA4BD, without VCB, mean ± SD, read-out: TR-FRET SMARCA4BD EC50.

Where “and” joins values, the source holds several entries; their conditions need not be identical. Equal entries are not always repeated. Where two headings read alike, the source gives them in different places. Bounds are passed on as bounds.

T1 sequence (P51531 with tags, fused parts or gaps isoform P51531-2): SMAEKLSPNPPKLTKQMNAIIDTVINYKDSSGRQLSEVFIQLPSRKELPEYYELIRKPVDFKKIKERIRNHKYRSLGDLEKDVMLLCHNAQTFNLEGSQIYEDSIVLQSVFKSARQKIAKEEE

As for `CN1CCN(c2nc(=O)c3c(Cl)cccc3o2)CC1` [compound 13], the EC50 in data set [1] (setting [6]), in data set [2] (setting [7]), in data set [3] (setting [8]), in data set [3] (setting [9]) and in data set [5] (setting [12]) was over 10 µM each time. For the same compound, the IC50 in data set [1] was over 10 µM. Further, the DC50 in data set [4] (setting [10]) and in data set [4] (setting [11]) was over 25 µM each time.

`Cc1ncsc1-c1ccc(C(CCC(C)CCN2CCC(c3ccc4c(c3)n(C3CCCC3)c3nc(=O)c5c(Br)cccc5n43)CC2)NC(=O)C2CC(O)CN2C(=O)C(NC(=O)C2(F)CC2)C(C)(C)C)cc1` (centres unmarked) [ACBI2]: the EC50 in data set [1] (Homo sapiens, NCI-H1568, assay not given, read-out: EC50) was 0.007 µM; in data set [1] (Homo sapiens, NCI-H1568, read-out: LogEC50 (viability) (converted)) it was 0.00743 µM; in data set [1] (Homo sapiens, NCI-H1568, values derived from curves in Extended Fig 4b, read-out: EC50 mean) it was 0.00743 µM; in data set [2] (setting [13]), 0.172 ± 0.109 µM; in data set [2] (setting [7]), 0.0946 µM and 0.127 µM and 0.166 µM and 0.204 µM and 0.373 µM; in data set [3] (setting [14]), 0.0593 µM and 0.0672 µM and 0.0777 µM. Besides, the EC50 in data set [3] (setting [15]) was 0.00383 µM and 0.0057 µM and 0.00549 µM; in data set [5] (setting [16]) it was 0.314 ± 0.121 µM; in data set [5] (setting [12]) it was 0.308 µM and 0.459 µM and 0.22 µM. The “Bottom (% Viability, four-parameter fit)” value in data set [1] (NCI-H1568) worked out at 1.886%. Further, in data set [1] (NCI-H1568), the “HillSlope (viability)” value is recorded as -1.08. Besides, in data set [1] (NCI-H1568), the “Top (% Viability, four-parameter fit)” value amounted to 95.68%. Besides, the IC50 in data set [1] is 0.00658 µM and 0.0107 µM and 0.00399 µM and 0.0108 µM and 0.0111 µM and 0.00371 µM. In addition, the “% Viability” value in data set [1] (NCI-H1568, log10 conc -5 mol/l) is -0.296% and -0.02611% and -0.1217% and 0.4768% and -0.2501%; in data set [1] (NCI-H1568, log10 conc -5.30103 mol/l) it was -0.06113% and -0.2267%; in data set [1] (NCI-H1568, log10 conc -5.50031 mol/l) it was 0.1326% and 0.2417% and 0.02451% and 0.1536% and 0.8908%; in data set [1] (NCI-H1568, log10 conc -5.90309 mol/l) it was 0.4837%; in data set [1] (NCI-H1568, log10 conc -6.50446 mol/l) it was 2.441% and 0.7903%; in data set [1] (NCI-H1568, log10 conc -7.10735 mol/l), 8.308% and 6.732%. Besides, the “% Viability” value in data set [1] (NCI-H1568, log10 conc -8.31158 mol/l) is 56.5669% and 89.3041%; in data set [1] (NCI-H1568, log10 conc -8.91364 mol/l), 76.9492% and 107.085%; in data set [1] (NCI-H1568, log10 conc -9.5157 mol/l), 76.1437% and 99.3609%; in data set [1] (NCI-H1568, log10 conc -10 mol/l), 102.65% and 94.5594% and 117.406% and 60.7547% and 106.867%; in data set [1] (NCI-H1568, log10 conc -10.1175 mol/l), 83.2326% and 93.6592%; in data set [1] (NCI-H1568, log10 conc -10.5003 mol/l) it was 109.307% and 95.7558% and 110.528% and 76.6212%. Further, the DC50 in data set [4] (setting [10]) is 0.00355 µM and 0.00163 µM and 0.00177 µM and 0.00345 µM and 0.00401 µM and 0.00403 µM and 0.00311 µM; in data set [4] (setting [11]), 0.002 µM and 0.00228 µM and 0.00137 µM and 0.00163 µM and 0.00115 µM and 0.00122 µM and 0.00153 µM and 0.000997 µM and 0.00143 µM and 0.000892 µM.

For `CN1CCN(c2nc(=O)c3c(F)cccc3o2)CC1` [compound 17], the EC50 in data set [1] (setting [6]), in data set [2] (setting [7]), in data set [3] (setting [8]), in data set [3] (setting [9]) and in data set [5] (setting [12]) was over 10 µM each time. In addition, the IC50 in data set [1] was over 10 µM. The DC50 in data set [4] (setting [10]) and in data set [4] (setting [11]) was over 25 µM throughout.

As to `Cc1ncsc1-c1ccc([C@H](CC[C@H](C)CCN2CCC(c3ccc4c(c3)n(C3CCCC3)c3nc(=O)c5c(Br)cccc5n43)CC2)NC(=O)[C@@H]2C[C@H](O)CN2C(=O)[C@@H](NC(=O)C2(F)CC2)C(C)(C)C)cc1` [compound 12], the EC50 is 0.236 ± 0.175 µM in data set [1] (Homo sapiens, NCI-H1568, […], read-out: EC50 cell proliferation (CellTiter Glo)); 0.203 ± 0.065 µM in data set [2] (setting [13]); 0.125 µM and 0.272 µM and 0.263 µM and 0.154 µM in data set [2] (setting [7]); 0.0677 µM and 0.0821 µM and 0.0749 µM in data set [3] (setting [14]); 0.0679 µM and 0.0858 µM and 0.0797 µM in data set [3] (setting [15]); 0.347 ± 0.041 µM in data set [5] (setting [16]). Further, the EC50 in data set [5] (setting [12]) is > 0.4 µM and 0.339 µM and 0.302 µM. Besides, the IC50 in data set [1] is 0.411 µM and 0.372 µM and 0.0859 µM. Further, the DC50 in data set [4] (setting [10]) was over 25 µM; in data set [4] (setting [11]), 10.7 µM and 4.78 µM and 8.27 µM and > 25 µM.

Regarding `Cc1ncsc1-c1ccc(CNC(=O)[C@@H]2C[C@@H](O)CN2C(=O)[C@@H](NC(=O)C2(F)CC2)C(C)(C)C)c(OCCCCN2CCC(c3ccc4c(c3)n(C3CCCC3)c3nc(=O)c5c(Br)cccc5n43)CC2)c1` [compound 23], the EC50 in data set [1] (setting [6]) is 0.104 ± 0.027 µM; in data set [2] (setting [13]), 0.098 ± 0.012 µM; in data set [2] (setting [7]) it was 0.0885 µM and 0.111 µM and 0.107 µM and 0.0874 µM; in data set [3] (setting [8]), 0.0183 µM and 0.0229 µM and 0.0221 µM; in data set [3] (setting [9]) it was 0.0462 µM and 0.0379 µM and 0.0382 µM and 0.0361 µM; in data set [5] (setting [16]) it was 0.174 ± 0.021 µM. Besides, the EC50 in data set [5] (setting [12]) was 0.148 µM and 0.197 µM and 0.173 µM and 0.183 µM. Further, the IC50 in data set [1] was 0.133 µM and 0.0785 µM and 0.108 µM. The DC50 in data set [4] (setting [11]) was 0.03 µM and 0.05 µM and 0.04 µM.

The values above are taken from publication PMC9551036, “A selective and orally bioavailable VHL-recruiting PROTAC achieves SMARCA2 degradation in vivo” (Nature Communications, 2022).
